{"source": "paper PMC6718478", "about": "“A Comprehensive Antimicrobial Activity Evaluation of the Recombinant Microcin J25 Against the Foodborne Pathogens Salmonella and E. coli O157:H7 by Using a Matrix of Conditions” (Frontiers in Microbiology, 2019)", "key": {"S. Pullorum CVCC1791": {"test_system": "S. Pullorum CVCC1791", "test": "Antimicrobial activity (killing) curves", "assay_type": "cell-based, Salmonella Pullorum", "method": "To further address the activity of recombinant MccJ25, antimicrobial activity curves and Live/Dead viability assay were performed. A single colony of S. Pullorum CVCC1791, S. Typhimurium ATCC14082, and E. coli O157:H7 was inoculated into 5 mL of LB. The culture was then incubated at 37°C with shaking at 200 rpm overnight. The following day, the culture was diluted 1:100 in fresh LB and again incubated at 37°C with shaking at 200 rpm. For antimicrobial activity, the bacteria were grown until they reached log phase. Approximately 5 × 10^4 CFU/mL bacteria were inoculated into 2 mL of LB containing different concentrations of the recombinant MccJ25 (0, 1 × MIC, 2 × MIC, and 4 × MIC). […] The plates were incubated at 37°C overnight to count colony. Colonies were counted to determine CFU/mL. The experiment was conducted with two replicates in three independent trials."}, "E. coli O157:H7 [1]": {"test_system": "E. coli O157:H7", "test": "Antimicrobial activity (killing) curves", "assay_type": "cell-based, Escherichia coli", "details": "4 × MIC; log phase, ~5 × 10^4 CFU/mL in LB, 37°C; plate counts at 0, 2, 4, 6 h; n = 6", "method": "(§1) To further address the activity of recombinant MccJ25, antimicrobial activity curves and Live/Dead viability assay were performed. A single colony of S. Pullorum CVCC1791, S. Typhimurium ATCC14082, and E. coli O157:H7 was inoculated into 5 mL of LB. The culture was then incubated at 37°C with shaking at 200 rpm overnight. The following day, the culture was diluted 1:100 in fresh LB and again incubated at 37°C with shaking at 200 rpm. For antimicrobial activity, the bacteria were grown until they reached log phase. Approximately 5 × 10^4 CFU/mL bacteria were inoculated into 2 mL of LB containing different concentrations of the recombinant MccJ25 (0, 1 × MIC, 2 × MIC, and 4 × MIC). The cultures (0.1 mL) were serially diluted with PBS and plated on LB and TSA agar at 0, 2, 4, and 6 h. The plates were incubated at 37°C overnight to count colony. Colonies were counted to determine CFU/mL. The experiment was conducted with two replicates in three independent trials."}, "IPEC-J2 cells": {"test_system": "IPEC-J2 cells", "test": "Salmonella invasion of IPEC-J2 cell monolayers", "assay_type": "cell-based", "details": "6 h with recombinant MccJ25, Salmonella for 2 h; plate counts, n = 9", "method": "FIGURE S1 | Protective effects of recombinant MccJ25 against Salmonella invasion of IPEC-J2 cell monolayers. IPEC-J2 cells were cultured with or without recombinant MccJ25 for 6 h in the absence or presence of Salmonella for 2 h. The invasion of Salmonella in the IPEC-J2 cells was determined. Salmonella (mean CFU/ml ± SEMs) were determined by plate counts, and determined from three individual experiments. n = 9. Different superscript lowercase letters within each group indicate significant differences (P < 0.05)."}, "S. Pullorum [2]": {"test_system": "S. Pullorum", "test": "Thermal stability, inhibition zone read-out", "assay_type": "physicochemical, Salmonella Pullorum", "details": "temperatures as high as 121°C for 20 min; 150 μL of 1 × MIC; Oxford cup inhibition zone on LB agar, overnight 37°C; three replicate experiments", "method": "[…] The assays were conducted as described previously ([Chen et al., 2009]; [Meng et al., 2019]), with slight modifications. LB agar inoculated with the indicator bacteria S. Pullorum (approximately 10^5 viable cells per mL) was poured over plates fitted with Oxford cups to make wells. 150 μL of 1 × MIC final concentration of recombinant MccJ25 samples previously treated under various conditions were added to the wells. The agar overlays were incubated overnight at 37°C, and the inhibition zones were recorded."}, "S. Pullorum [3]": {"test_system": "S. Pullorum", "test": "TEM of morphology and intracellular alteration", "assay_type": "cell-based, Salmonella Pullorum", "method": "For TEM sample preparation, (1) two milliliters of 2 × 10^6 cells of S. Pullorum broth cultured in the absence or presence of 1×, 2× and 4× MIC of the recombinant MccJ25 were incubated and collected at 1 h. (2) After that, approximately 2 × 10^6 S. Pullorum cells were incubated at 37°C for […] with the recombinant MccJ25 at 2 × MIC for 2, 3, and 4 h. They were then centrifuged at 5,000 × g for 5 min. Pretreatment of bacterial samples was conducted in the same way as the SEM treatment. Finally, the samples were placed in capsules containing embedding medium and heated at 70°C for approximately 9 h. Specimens were stained with uranyl acetate and alkaline lead citrate for 15 min. They were then observed by TEM (Model JEM-1230, JEOL, Japan)."}, "S. Pullorum [4]": {"test_system": "S. Pullorum", "test": "Live/Dead BacLight viability assay", "assay_type": "cell-based, Salmonella Pullorum", "details": "at the MIC level, 2 h at 37°C, 5 × 10^4 CFU/mL in LB; fluorescence microscopy", "method": "A Live/Dead BacLight Bacterial Viability Kit 7 (Molecular Probes, Inc., Eugene) was used to test bacterial viability. Briefly, 5 × 10^4 CFU/mL S. Pullorum, S. Typhimurium, and E. coli O157:H7 were inoculated into 1 mL of LB containing recombinant MccJ25 at the MIC level specific for each pathogen. Bacterial cultures were incubated at 37°C for 2 h and then incubated in the dark at ambient temperature with SYTO 9 and propidium iodide for 15 min. Bacteria were observed using a fluorescence microscope (EVOS XL Cell Imaging System)."}, "E. coli O157:H7 [5]": {"test_system": "E. coli O157:H7", "test": "Antimicrobial activity in biological food products (skim milk, egg yolk, mincemeat extract)", "assay_type": "cell-based, Escherichia coli", "details": "4 × MIC, SKM, 37°C; for viable bacteria after 24 h in the three food products: SEY, SMS, data not shown"}, "S. Typhimurium ATCC14082": {"test_system": "S. Typhimurium ATCC14082", "test": "Antimicrobial activity (killing) curves", "assay_type": "cell-based, Salmonella Typhimurium", "details": "4 × MIC; log phase, ~5 × 10^4 CFU/mL in LB, 37°C; plate counts at 0, 2, 4, 6 h; n = 6", "method": "as §1"}, "Claudin-1": {"test_system": "Claudin-1", "test": "Tight junction protein mRNA expression in Salmonella-challenged IPEC-J2 cells, real-time PCR", "assay_type": "cell-based", "details": "6 h with recombinant MccJ25, then Salmonella for 2 h, n = 9", "method": "(§2) IPEC-J2 cells were cultured with or without recombinant MccJ25 for 6 h and then treated with Salmonella for 2 h. Cells were collected, and relative mRNA expression was analyzed by real-time PCR. The data are the means ± SEMs of three independent experiments, n = 9. Different superscript lowercase letters within each group indicate significant differences (P < 0.05)."}, "ZO-1": {"test_system": "ZO-1", "test": "Tight junction protein mRNA expression in Salmonella-challenged IPEC-J2 cells, real-time PCR", "assay_type": "cell-based", "details": "6 h with recombinant MccJ25, then Salmonella for 2 h, n = 9", "method": "as §2"}}, "note": "Positions of bridges follow the written chain, without caps; N, C: chain ends. Residues, ends and D or L forms follow the SMILES beside them."}
{"smiles": "CC[C@H](C)[C@H](NC(=O)CNC(=O)[C@@H](NC(=O)[C@H](Cc1ccccc1)NC(=O)[C@H](Cc1ccc(O)cc1)NC(=O)[C@@H]1CCC(=O)NCC(=O)NCC(=O)N[C@@H](C)C(=O)NCC(=O)N[C@@H](Cc2c[nH]cn2)C(=O)N[C@@H](C(C)C)C(=O)N2CCC[C@H]2C(=O)N1)C(C)C)C(=O)NCC(=O)N[C@H](C(=O)N1CCC[C@H]1C(=O)N[C@H](C(=O)N[C@@H](CO)C(=O)N[C@@H](Cc1ccccc1)C(=O)N[C@@H](Cc1ccc(O)cc1)C(=O)NCC(=O)O)[C@@H](C)CC)[C@@H](C)O", "note": "[recombinant MccJ25, microcin J25] (GGAGHVPEYFVGIGTPISFYG-OH; lactam N-8 (inferred); C-terminus assumed)", "values": [{"measurement": "regrowth in killing curve", "setting": "S. Pullorum CVCC1791; 1 × MIC, after 8 h of incubation", "value": "did not exhibit regrowth"}, {"measurement": "incubation time after which all bacteria were killed (killing curve)", "setting": "S. Pullorum CVCC1791; 1 × MIC, log phase, ~5 × 10^4 CFU/mL in LB, 37°C, plate counts, n = 6", "value": 4, "unit": "h"}, {"measurement": "incubation time after which the pathogen was eliminated (killing curve)", "setting": "S. Pullorum CVCC1791; 4 × MIC, log phase, ~5 × 10^4 CFU/mL in LB, 37°C, plate counts at 0, 2, 4, 6 h, n = 6", "value": 6, "unit": "h"}, {"measurement": "incubation time after which the pathogen was eliminated (killing curve)", "setting": "E. coli O157:H7 [1]", "value": 6, "unit": "h"}, {"measurement": "S. Pullorum invasion of IPEC-J2 cells", "setting": "IPEC-J2 cells", "value": "inhibited S. Pullorum invasion"}, {"measurement": "influence of temperature on activity against S. Pullorum (thermal stability)", "setting": "S. Pullorum [2]", "value": "no influence"}, {"measurement": "cytoplasmic membrane integrity by TEM", "setting": "S. Pullorum [3]; 1, 2, or 4 × MIC for 1 h, 2 × 10^6 cells", "value": "significantly disrupted the membrane"}, {"measurement": "morphology and intracellular alteration by TEM", "setting": "S. Pullorum [3]; 2 × MIC for 2, 3, and 4 h", "value": "deformed small septa, invisible cytoplasmic membranes, heterogeneous electron density, electron-light regions and thinned cell walls"}, {"measurement": "bactericidal activity, Live/Dead staining (SYTO 9 / propidium iodide)", "setting": "S. Pullorum [4]", "value": "excellent bactericidal activity"}, {"measurement": "viable bacteria after 24 h in the three food products", "setting": "E. coli O157:H7 [5]; inoculum 10^3 CFU/mL", "value": "no viable bacteria were detected"}, {"measurement": "viable bacteria after 24 h in the three food products", "setting": "E. coli O157:H7 [5]; inoculum 10^4 CFU/mL", "value": "no bacteria were detected"}, {"measurement": "CFU reduction after 24 h", "setting": "E. coli O157:H7 [5]; SEY, and SMS, inoculum 10^6 CFU/mL, plate counts, n = 6", "value": "approximately 10^3 CFU/mL"}, {"measurement": "incubation time after which the pathogen was eliminated (killing curve)", "setting": "S. Typhimurium ATCC14082", "value": 6, "unit": "h"}, {"measurement": "mRNA expression of Claudin-1", "setting": "Claudin-1", "value": "significantly increased"}, {"measurement": "mRNA expression of ZO-1", "setting": "ZO-1", "value": "significantly increased"}]}
